Assay results from paper PMC5107130 (Pharmacological Research, 2016).
Entries after “also recorded” stand apart in the source; their conditions may differ. Like-named read-outs stand apart in the source and are kept apart here.

Experiments:
CBS = details: cited from earlier work; for % inhibition of CBS activity: 1 mM
[1] = Counterscreen: AzMC fluorescence signal generated by the H2S donor GYY4137; details: for % inhibition of GYY4137-induced AzMC fluorescence / Confirmation (% inhibition of GYY4137-induced AzMC fluorescence): mean ± SEM, n = 3
HCT116 cells [2] = test: Mitochondrial function, MTT assay; assay type: cell-based, human; details: 48 h
HCT116 cells [3] = test: Cytotoxicity, lactate dehydrogenase; assay type: cell-based, human; details: 48 h
[4] = target: T1, Recombinant full length human CBS (Homo sapiens, UniProt P35520); test: AzMC fluorescence assay of CBS-derived H2S production; assay type: biochemical; details: for % inhibition of CBS-induced AzMC fluorescence: copper compounds, mean ± SEM, n = 3
T1 sequence (P35520 1-551): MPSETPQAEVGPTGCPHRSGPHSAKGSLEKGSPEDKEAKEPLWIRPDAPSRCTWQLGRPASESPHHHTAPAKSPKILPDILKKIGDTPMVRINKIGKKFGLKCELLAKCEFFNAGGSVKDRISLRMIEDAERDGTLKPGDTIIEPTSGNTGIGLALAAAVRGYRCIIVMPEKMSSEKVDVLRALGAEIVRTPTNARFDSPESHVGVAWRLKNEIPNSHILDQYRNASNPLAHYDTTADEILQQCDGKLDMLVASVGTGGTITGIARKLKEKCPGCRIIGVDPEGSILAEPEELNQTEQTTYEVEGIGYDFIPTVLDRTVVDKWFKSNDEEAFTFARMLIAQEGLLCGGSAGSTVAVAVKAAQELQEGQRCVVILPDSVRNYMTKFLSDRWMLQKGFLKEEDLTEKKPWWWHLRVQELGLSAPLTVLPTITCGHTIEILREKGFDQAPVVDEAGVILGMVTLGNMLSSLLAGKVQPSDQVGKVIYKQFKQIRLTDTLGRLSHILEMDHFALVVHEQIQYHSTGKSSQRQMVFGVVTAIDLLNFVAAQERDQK

HCT116 cells [5] = test: Cell proliferation, xCELLigence system; assay type: cell-based, human; details: Cell Index, 48 h, concentration in the value
[6] = target: T1, Recombinant full length human CBS; test: Methylene blue assay of CBS-derived H2S; assay type: biochemical; details: read-out: % inhibition of CBS-induced methylene blue signal
CSE = details: cited from earlier work
[7] = read-out: % inhibition of CBS-induced AzMC fluorescence
[8] = read-out: % inhibition of CBS-induced AzMC fluorescence, 10 μM, mean ± SEM, n = 3
[9] = read-out: % inhibition of CBS-induced AzMC fluorescence, 100 μM, mean ± SEM, n = 3
[10] = read-out: Confirmation (% inhibition of CBS-induced AzMC fluorescence), 30 μM, mean ± SEM, n = 3
[11] = read-out: Initial screen (% inhibition of CBS-induced AzMC fluorescence), 30 μM

SMILES: NNC(=O)c1ccncc1 [isoniazid]
- % inhibition of CBS activity (CBS): 15–20%

SMILES: [Cl][Cu][Cl] [CuCl2, copper(II) chloride]
- % inhibition of GYY4137-induced AzMC fluorescence ([1]; copper compounds, 0.1 μM): 1 ± 1%
- % inhibition of GYY4137-induced AzMC fluorescence ([1]; copper compounds, 0.3 μM): 10 ± 1%
- % inhibition of GYY4137-induced AzMC fluorescence ([1]; copper compounds, 1 μM): 14 ± 1%
- MTT conversion in HCT116 cells (HCT116 cells [2]): decreased MTT conversion
- Cytotoxicity / LDH release in HCT116 cells (HCT116 cells [3]): paradoxical reduction in LDH activity
- % inhibition of CBS-induced AzMC fluorescence ([4]; 0.1 μM): 36 ± 1%
- % inhibition of CBS-induced AzMC fluorescence ([4]; 0.3 μM): 60 ± 2%
- % inhibition of CBS-induced AzMC fluorescence ([4]; 1 μM): 90 ± 1%
- IC50 ([4]; read-out: IC50, inhibition of recombinant CBS (CBS-induced AzMC fluorescence), cell-free, 2 mM L-cysteine and homocysteine): ~0.2 µM
- Effect on HCT116 cell proliferation (words) (HCT116 cells [5]): only inhibited HCT116 cells proliferation at the highest concentration tested (1 mM)
- Effect on HCT116 cell proliferation (words) (HCT116 cells [5]; listed as copper ions): up to 300 μM, did not inhibit HCT116 cell proliferation

SMILES: Cn1ncnc2c(=O)n(C)c(=O)nc1-2 [NSC67078, 1,6-dimethyl-pyrimido[5,4-e]-1,2,4-triazine-5,7(1H,6H)-dione]
- % inhibition of GYY4137-induced AzMC fluorescence ([1]; 1 μM): 25 ± 1%
- % inhibition of GYY4137-induced AzMC fluorescence ([1]; 10 μM): 65 ± 1%
- % inhibition of GYY4137-induced AzMC fluorescence ([1]; 30 μM): 78 ± 1%
- IC50 ([1]; read-out: IC50, inhibition of GYY4137-induced AzMC fluorescence, scavenging/non-specific effects): ~6 µM
- inhibition at 1 µM [6]: 59 ± 2%
- inhibition at 10 µM [6]: 73 ± 1%
- inhibition at 30 µM [6]: 95 ± 1%
- MTT conversion in HCT116 cells (HCT116 cells [2]): suppression of MTT conversion
- Potency of CSE inhibition relative to CBS inhibition (fold lower) (CSE): 3 fold
- IC50 [4]: ~1 µM
- inhibition at 1 µM [4, 7]: 47 ± 1%
- inhibition at 10 µM [4, 7]: 88 ± 1%
- inhibition at 30 µM [4, 7]: 93 ± 1%

SMILES: N[C@@H]1CON=C1O [D-cycloserine]
- % inhibition of CBS activity (CBS): 15–20%

SMILES: Oc1c(Cl)cc(Cl)c(Cl)c1Cc1c(O)c(Cl)cc(Cl)c1Cl.Oc1c(Cl)cc(Cl)c(Cl)c1Cc1c(O)c(Cl)cc(Cl)c1Cl [Hexachlorophene, 2,2′-methylenebis(3,4,6-trichlorophenol)-3,4,6-trichloro-2-[(2,3,5-trichloro-6-hydroxyphenyl)methyl]phenol]
- % inhibition of GYY4137-induced AzMC fluorescence ([1]; 10 μM): −4 ± 2%
- Confirmation (% inhibition of GYY4137-induced AzMC fluorescence) ([1]; 30 μM): 1 ± 1%
- % inhibition of GYY4137-induced AzMC fluorescence ([1]; 100 μM): −2 ± 1%
- inhibition at 10 µM [6]: 21 ± 1%
- inhibition at 30 µM [6]: 31 ± 1%
- inhibition at 100 µM [6]: 64 ± 1%
- Cytotoxicity / LDH release in HCT116 cells (HCT116 cells [3]): exerted cytotoxic effects
- IC50 [4]: ~60 µM
- inhibition at 10 µM [4, 8]: 3 ± 1%
- inhibition at 100 µM [4, 9]: 70 ± 1%
- inhibition at 30 µM [4, 10]: 12 ± 1%
- inhibition at 30 µM [4, 11]: 48%
- Effect on HCT116 cell proliferation (words) (HCT116 cells [5]): did not affect HCT116 proliferation up to 3 μM; also recorded: fully inhibited cell proliferation at 10 μM; also recorded: inhibits HCT116 proliferation at fairly low concentrations (10 μM)

SMILES: C#CCC(N)C(=O)O (stereo not drawn) [PAG]
- CBS inhibition (CBS): is not an inhibitor of CBS

SMILES: O=C(OC[C@H]1O[C@@H](OC(=O)c2cc(O)c(O)c(OC(=O)c3cc(O)c(O)c(O)c3)c2)[C@H](OC(=O)c2cc(O)c(O)c(OC(=O)c3cc(O)c(O)c(O)c3)c2)[C@@H](OC(=O)c2cc(O)c(O)c(OC(=O)c3cc(O)c(O)c(O)c3)c2)[C@@H]1OC(=O)c1cc(O)c(O)c(OC(=O)c2cc(O)c(O)c(O)c2)c1)c1cc(O)c(O)c(OC(=O)c2cc(O)c(O)c(O)c2)c1 [Tannic acid, 2,3-dihydroxy-5-({[(2R,3R,4S,5R,6R)-3,4,5,6-tetrakis({3,4-dihydroxy-5-[(3,4,5-trihydroxyphenyl)carbonyloxy]phenyl}carbonyloxy)oxan-2-yl]methoxy}carbonyl)phenyl 3,4,5-trihydroxybenzoate]
- % inhibition of GYY4137-induced AzMC fluorescence ([1]; 10 μM): −1 ± 1%
- % inhibition of GYY4137-induced AzMC fluorescence ([1]; 30 μM): 3 ± 2%
- Confirmation (% inhibition of GYY4137-induced AzMC fluorescence) ([1]; 30 μM): 3 ± 2%
- % inhibition of GYY4137-induced AzMC fluorescence ([1]; 100 μM): 8 ± 3%
- inhibition at 10 µM [6]: 24 ± 9%
- inhibition at 30 µM [6]: 46 ± 3%
- inhibition at 100 µM [6]: 56 ± 3%
- Cytotoxicity / LDH release in HCT116 cells (HCT116 cells [3]): without signs of cytotoxicity
- IC50 [4]: ~40 µM
- inhibition at 10 µM [4, 8]: 28 ± 2%
- inhibition at 30 µM ([4]; read-out: % inhibition of CBS-induced AzMC fluorescence, 30 μM, mean ± SEM, n = 3): 43 ± 1%
- inhibition at 100 µM [4, 9]: 75 ± 1%
- inhibition at 30 µM [4, 10]: 43 ± 1%
- inhibition at 30 µM [4, 11]: 73%
- Effect on HCT116 cell proliferation (words) (HCT116 cells [5]): concentration-dependently inhibited proliferation, starting with 10 μM; also recorded: complete inhibition was seen at 100 μM

SMILES: NNCc1ccc(O)c(O)c1O [2,3,4-trihydroxybenzylhydrazine]
- MTT conversion in HCT116 cells (HCT116 cells [2]): reduced MTT conversion at 300 μM
- Cytotoxicity / LDH release in HCT116 cells (HCT116 cells [3]): did not exert cytotoxic effects
- inhibition at 30 µM ([4]; read-out: % inhibition of recombinant CBS activity, 30 μM, standard assay conditions): 51 ± 2%
- inhibition at 100 µM ([4]; read-out: % inhibition of recombinant CBS activity, 100 μM, standard assay conditions, freshly dissolved): 82%
- Effect on HCT116 cell proliferation (words) (HCT116 cells [5]): inhibited HCT116 cell proliferation in vitro at 10–300 μM
